system: Mycobacterium tuberculosis strain EH 4.0 (361.269); experiment: Test 4: MIC determination, resazurin fluorescence, strain EH 4.0; type: cell-based; conditions: Mycobacterium tuberculosis, read-out: pIC50, Test 4, M. tuberculosis strain EH 4.0 (361.269) (converted)
Text: TEST 4 (See Also Test 1 Above; in this Test a Different Strain of Mycobacterium tuberculosis Strain is Employed)
Appropriate solutions of experimental and reference compounds were made in 96 well plates with 7H9 medium. Samples of Mycobacterium tuberculosis strain EH 4.0 (361.269) were taken from cultures in stationary growth phase. These were first diluted to obtain an optical density of 0.3 at 600 nm wavelength and then diluted 1/100, resulting in an inoculum of approximately 5×10 exp5 colony forming units per well. Plates were incubated at 37° C. in plastic bags to prevent evaporation. After 7 days, resazurin was added to all wells.

Structure (SMILES) | IC50 [µM]
CCc1nc2sc(C)cn2c1C(=O)NCC1CC2(CCN(c3ccc(OC(F)(F)F)cc3)CC2)C1 [Compound 32] | 0.0398
O=C(NCC1CC12CCN(c1ccc(OC(F)(F)F)cc1)CC2)c1cc2n(c1)CCCC2 (stereo not drawn) [Compound 33] | > 12.6
CCc1nc2cn(C)ccc-2c1C(=O)NCc1ccc(N2CC3(CC(F)C3)C2)cc1 [Compound 34] | > 12.6
O=C(NCc1ccc(N2CC3(C2)CN(c2ccc(OC(F)(F)F)cc2)C3)cc1)c1cc2c([nH]1)CCCC2 [Compound 35] | 7.94
CCc1c(C(=O)NCc2ccc(N3CC4(CC(c5ccc(OC(F)(F)F)cc5)C4)C3)cc2)c2ccncc2n1C [Compound 36] | 7.94
O=C(NCc1ccc(N2CC3(CC(c4ccc(OC(F)(F)F)cc4)C3)C2)cc1)c1cc2c([nH]1)CCCC2 [Compound 37] | 3.98
CCc1c(C(=O)NCC2CC23CCN(c2ccc(OC(F)(F)F)cc2)CC3)c2cc(Cl)cnc2n1C (stereo not drawn) [Compound 38] | > 12.6
CCc1c(C(=O)NCC2CC23CCN(c2ccc(OC(F)(F)F)cc2)CC3)c2cc(Cl)ccc2n1C (stereo not drawn) [Compound 39] | > 12.6
O=C(NCC1CC12CCN(c1ccc(OC(F)(F)F)cc1)CC2)c1cc2c([nH]1)CCCC2 (stereo not drawn) [Compound 40] | > 12.6
CCc1nc2n(c1C(=O)NCC1CC13CCN(c1ccc(OC(F)(F)F)cc1)CC3)CCN(C)C2 (stereo not drawn) [Compound 41] | 7.94
O=C(NCc1ccc(N2CC3(C2)CN(c2ccc(OC(F)(F)F)cc2)C3)cc1)c1cc2n(c1)CCCC2 [Compound 42] | 10
CCc1c(C(=O)NCC2CC3(CCN(c4ccc(OC(F)(F)F)cc4)CC3)C2)c2cc(Cl)cnc2n1C [Compound 43] | > 12.6
O=C(NCC1CC2(CCN(c3ccc(OC(F)(F)F)cc3)CC2)C1)c1cc2c([nH]1)CCCC2 [Compound 44] | 7.94
O=C(NCc1ccc(N2CC3(CC(c4ccc(OC(F)(F)F)cc4)C3)C2)cc1)c1cc2n(c1)CCCC2 [Compound 45] | 7.94
CCc1nc2n(c1C(=O)NCC1CC3(CCN(c4ccc(OC(F)(F)F)cc4)CC3)C1)CCN(C)C2 [Compound 46] | 7.94
CCc1c(C(=O)NCc2ccc(N3CC4(C3)CN(c3ccc(OC(F)(F)F)cc3)C4)cc2)c2ccncc2n1C [Compound 47] | 6.31
CCc1nc2n(c1C(=O)NCC1CC13CCN(c1ccc(OC(F)(F)F)cc1)CC3)CCCC2 (stereo not drawn) [Compound 48] | 6.31
CCc1c(C(=O)NCC2CC23CCN(c2ccc(OC(F)(F)F)cc2)CC3)c2ccncc2n1C (stereo not drawn) [Compound 49] | > 12.6
CCc1nc2cn(C)ccc-2c1C(=O)NCC1CC2(CCN(c3ccc(OC(F)(F)F)cc3)CC2)C1 [Compound 50] | > 12.6
CCc1nc2ccn(C)cc-2c1C(=O)NCc1ccc(N2CC3(C2)CN(c2ccc(OC(F)(F)F)cc2)C3)cc1 [Compound 51] | 6.31
CCc1c(C(=O)NCC2CC3(CCN(c4ccc(OC(F)(F)F)cc4)CC3)C2)c2ccncc2n1C [Compound 52] | 7.94
CCc1nc2ccn(C)cc-2c1C(=O)NCC1CC12CCN(c1ccc(OC(F)(F)F)cc1)CC2 (stereo not drawn) [Compound 53] | > 12.6

Structure (SMILES) | IC50 [µM]
CCc1nc2cnc(Cl)cn2c1C(=O)NCC1CC12CCN(c1ccc(OC(F)(F)F)cc1)CC2 (stereo not drawn) [Compound 54] | 7.94
CCc1c(C(=O)NCC2CC23CCN(c2ccc(OC(F)(F)F)cc2)CC3)c2cnccc2n1C (stereo not drawn) [Compound 55] | > 12.6
COc1ccn2nc(C)c(C(=O)NCc3ccc(C4CC5(C4)CN(c4ccc(OC(F)(F)F)cc4)C5)cc3)c2c1 [Compound 56] | 0.00631
COc1ccn2nc(C)c(C(=O)NCc3ccc(N4CC5(C4)CN(c4ccc(OC(F)(F)F)cc4)C5)cc3)c2c1 [Compound 57] | 0.00794
CCc1nc2cnc(Cl)cn2c1C(=O)NCc1ccc(N2CC3(C2)CN(c2ccc(OC(F)(F)F)cc2)C3)cc1 [Compound 58] | 0.1
COc1ccn2nc(C)c(C(=O)NCC3CC4(CCN(c5ccc(OC(F)(F)F)cc5)CC4)C3)c2c1 [Compound 59] | 0.316
Cc1nc2ncc(Cl)cn2c1C(=O)NCC1CC2(CCN(c3ccc(OC(F)(F)F)cc3)CC2)C1 [Compound 60] | 0.1
CCc1nc2n(c1C(=O)NCC1CC3(CCN(c4ccc(OC(F)(F)F)cc4)CC3)C1)CCCC2 [Compound 61] | 0.631
CCc1nc2sc(C)cn2c1C(=O)NCC1CC12CCN(c1ccc(OC(F)(F)F)cc1)CC2 (stereo not drawn) [Compound 64] | 0.1
CCc1nc2n(c1C(=O)NCc1ccc(C3CC4(C3)CN(c3ccc(OC(F)(F)F)cc3)C4)cc1)CCCC2 [Compound 65] | 0.01
CCc1nc2ncc(Cl)cn2c1C(=O)NCc1ccc(N2CC3(CC(c4ccc(S(F)(F)(F)(F)F)cc4)C3)C2)cc1 [Compound 66] | 0.00794
CCc1nc2sc(C)cn2c1C(=O)NCc1ccc(C2CC3(C2)CN(c2ccc(OC(F)(F)F)cc2)C3)cc1 [Compound 67] | 0.01
CCc1nc2n(c1C(=O)NCc1ccc(C3CC4(C3)CN(c3ccc(OC(F)(F)F)cc3)C4)cc1)CCN(C)C2 [Compound 69] | 0.0316
CCc1nc2n(c1C(=O)NCc1ccc(N3CC4(C3)CN(c3ccc(OC(F)(F)F)cc3)C4)cc1)CCN(C)C2 [Compound 70] | 0.316
CCc1nc2n(c1C(=O)NCc1ccc(N3CC4(CC(c5ccc(OC(F)(F)F)cc5)C4)C3)cc1)CCN(C)C2 [Compound 71] | 0.316
CCc1nc2ccc(Cl)cn2c1C(=O)NCc1ccc(N2CC3(CC(Oc4ccc(C(F)(F)F)cc4)C3)C2)cc1 [Compound 72] | 0.01
CCc1nc2ncc(Cl)cn2c1C(=O)NCc1ccc(N2CC3(CC(Oc4ccc(C(F)(F)F)cc4)C3)C2)cc1 [Compound 73] | 0.2
CCc1nc2n(c1C(=O)NCc1ccc(N3CC4(CC(Oc5ccc(C(F)(F)F)cc5)C4)C3)cc1)CCN(C)C2 [Compound 74] | 0.0631
CCc1nc2ccc(Cl)cn2c1C(=O)NCc1ccc(N2CC3(CC(c4cccnc4)C3)C2)cc1 [Compound 77] | 0.794
CCc1nc2n(c1C(=O)NCc1ccc(N3CC4(CC(F)C4)C3)cc1)CCN(C)C2 [Compound 78] | 2.51
CCc1c(C(=O)NCc2ccc(N3CC4(C3)CN(c3ccc(OC(F)(F)F)cc3)C4)cc2)c2cc(Cl)cnc2n1C [Compound 79] | > 12.6
CCc1c(C(=O)NCc2ccc(N3CC4(C3)CN(c3ccc(OC(F)(F)F)cc3)C4)cc2)c2cc(Cl)ccc2n1C [Compound 80] | > 12.6

Structure (SMILES) | IC50 [µM]
CCc1nc2ccc(Cl)cn2c1C(=O)NCc1ccc(N2CCC3(CC2)CC(F)C3)cc1 [Compound 81] | 0.00501
CCc1nn2ccc(C)nc2c1C(=O)NCc1ccc(N2CC3(CC(c4ccc(OC(F)(F)F)cc4)C3)C2)cc1 [Compound 97] | > 12.6
CCc1nn2c(C)ccnc2c1C(=O)NCc1ccc(N2CC3(CC(c4ccc(OC(F)(F)F)cc4)C3)C2)cc1 [Compound 98] | > 12.6
CCc1nc2cn(C)ccc-2c1C(=O)NCC1CC12CCN(c1ccc(OC(F)(F)F)cc1)CC2 (stereo not drawn) [Compound 99] | > 12.6
O=C(NCC1CC2(CCN(c3ccc(OC(F)(F)F)cc3)CC2)C1)c1cc2n(c1)CCCC2 [Compound 100] | > 12.6
CCc1nc2cnc(Cl)cn2c1C(=O)NCC1CC2(CCN(c3ccc(OC(F)(F)F)cc3)CC2)C1 [Compound 101] | 1.58
CCc1nn2ccc(C)nc2c1C(=O)NCc1ccc(C2CC3(C2)CN(c2ccc(OC(F)(F)F)cc2)C3)cc1 [Compound 102] | 3.98
CCc1nn2c(C)ccnc2c1C(=O)NCc1ccc(C2CC3(C2)CN(c2ccc(OC(F)(F)F)cc2)C3)cc1 [Compound 103] | 7.94
CCc1nc2ccn(C)cc-2c1C(=O)NCc1ccc(N2CC3(CC(c4ccc(OC(F)(F)F)cc4)C3)C2)cc1 [Compound 104] | > 12.6
CCc1nn2c(C)ccnc2c1C(=O)NCC1CC2(CCN(c3ccc(OC(F)(F)F)cc3)CC2)C1 [Compound 105] | > 12.6
CCc1nn2ccc(C)nc2c1C(=O)NCC1CC12CCN(c1ccc(OC(F)(F)F)cc1)CC2 (stereo not drawn) [Compound 106] | > 12.6
CCc1nn2ccc(C)nc2c1C(=O)NCC1CC2(CCN(c3ccc(OC(F)(F)F)cc3)CC2)C1 [Compound 107] | > 12.6
CCc1nn2c(C)ccnc2c1C(=O)NCC1CC12CCN(c1ccc(OC(F)(F)F)cc1)CC2 (stereo not drawn) [Compound 108] | > 12.6
CCc1nc2ccn(C)cc-2c1C(=O)NCC1CC2(CCN(c3ccc(OC(F)(F)F)cc3)CC2)C1 [Compound 109] | > 12.6
CCc1[nH]c2ncc(Cl)cc2c1C(=O)NCC1CC12CCN(c1ccc(OC(F)(F)F)cc1)CC2 (stereo not drawn) [Compound 110] | > 12.6
CCc1c(C(=O)NCC2CC3(CCN(c4ccc(OC(F)(F)F)cc4)CC3)C2)c2cnccc2n1C [Compound 111] | > 12.6
CCc1nc2ccn(C)cc-2c1C(=O)NCc1ccc(C2CC3(C2)CN(c2ccc(OC(F)(F)F)cc2)C3)cc1 [Compound 112] | 3.16
CCc1[nH]c2ncc(Cl)cc2c1C(=O)NCC1CC2(CCN(c3ccc(OC(F)(F)F)cc3)CC2)C1 [Compound 113] | > 12.6
CCc1c(C(=O)NCc2ccc(C3CC4(C3)CN(c3ccc(OC(F)(F)F)cc3)C4)cc2)c2cc(Cl)ccc2n1C [Compound 114] | 12.6
O=C(NCc1ccc(C2CC3(C2)CN(c2ccc(OC(F)(F)F)cc2)C3)cc1)c1cc2c([nH]1)CCCC2 [Compound 115] | 3.16
CCc1nc2ccc(Cl)cn2c1C(=O)NCc1ccc(C2CC3(C2)CN(C=O)C3)cc1 [Compound 116] | 0.316

same assay, conditions: Test 4, M. tuberculosis strain EH 4.0 (361.269)

Structure (SMILES) | pIC50
CCc1nc2ccc(Cl)cn2c1C(=O)NCC1CC12CCN(c1ccc(OC(F)(F)F)cc1)CC2 (stereo not drawn) [Compound 1] | 7.0
CCc1nc2ccc(Cl)cn2c1C(=O)NCC1CC12CCN(c1ccc(OC(F)(F)F)cc1)CC2 (stereo not drawn) [Compound 63] | 6.5

system: Mycobacterium tuberculosis strain H37Rv; experiment: Test 1: MIC determination, resazurin fluorescence, M. tuberculosis H37Rv; type: cell-based; conditions: Mycobacterium tuberculosis, H37RV, read-out: pIC50 (converted)

Structure (SMILES) | IC50 [µM]
CCc1nc2ccc(Cl)cn2c1C(=O)NCC1CC12CCN(c1ccc(OC(F)(F)F)cc1)CC2 (stereo not drawn) [Compound 1] | 0.00933

same assay, conditions: Mycobacterium tuberculosis, H37RV, read-out: pIC50 * (converted)

Structure (SMILES) | IC50 [µM]
CCc1nc2ccc(Cl)cn2c1C(=O)NCC1CC12CCN(c1ccc(OC(F)(F)F)cc1)CC2 (stereo not drawn) [Compound 1] | 0.0132

Source: patent US20190330189A1, “ANTIBACTERIAL COMPOUNDS” (Janssen Sciences Ireland UC, priority 2015, published 2019)
